In patent publication US20130064913A1, “ANTI-INFLAMMATORY BOTANICAL PRODUCTS FOR THE TREATMENT OF METABOLIC SYNDROME AND DIABETES” (Metaproteomics, LLC, priority 2001, published 2013):
Values after ≈ are worked out from the molar mass of the structure shown. Read-outs that look alike come from different tables or passages of the source. Marks after values point to notes of the source that are not given here.

Tests used:
[1] = test system: PGE2 synthesis in LPS-stimulated RAW 264.7 cells; assay: PGE2 inhibition in LPS-stimulated RAW 264.7 murine macrophages (Example 1); assay type: cell-based; conditions: for IC50: Mus musculus, RAW264.7; for Relative Potency: category of anti-inflammatory activity based on IC50
[2] = test system: LPS-treated 3T3-L1 adipocytes; assay: Adiponectin secretion in LPS/3T3-L1 adipocytes; assay type: cell-based, murine; conditions: 100 ng LPS/ml
3T3-L1 adipocytes = assay: Lipogenesis (Oil Red O / BODIPY) in 3T3-L1 adipocytes; assay type: cell-based, murine; conditions: hops compounds 10, 5, 4 or 2 μg/ml, spent hops 50 μg/ml (Example 19)
[3] = test system: insulin-resistant 3T3-L1 adipocytes; assay: Adiponectin secretion from insulin-resistant 3T3-L1 adipocytes; assay type: cell-based, murine; conditions: for Adiponectin/IL-6: insulin-resistant model
Source text: For two days, the cells were allowed grow to reach confluence. […] Twenty-four hours later, the supernatant medium was sampled for adiponectin determination. […] The adiponectin secreted into the medium was quantified using the Mouse Adiponectin Quantikine® Immunoassay kit with no modifications (R&D Systems, Minneapolis, Minn.). […] Substituting {relative adiponectin secretion/[concentration]} for the independent variable v/[S] and {relative adiponectin secretion} for the dependant variable {v}, produced a relationship of the form y=mx+b. Maximum adiponectin secretion relative to the solvent control was estimated from the y-intercept, while the concentration of test material necessary for half maximal adiponectin secretion was computed from the negative value of the slope.

NF-κB = NF-κB DNA binding of nuclear extracts (TransAM NF-κB kit) from LPS-stimulated RAW 264.7 cells; assay type: cell-based, murine; conditions: LPS 4 h; MgRIAA 55 and 14 μg/ml, parthenolide 80 μM, LY294002 25 μM
Method: Nuclear extracts were prepared essentially as described by Dignam, et al [Nucl Acids Res 11:1475-1489, (1983)]. […] Cells were then scraped into a clean tube and processed through three cycles of freeze/thaw. The supernatant layer following centrifugation at 10,000×g for 5 min at 4° C. was the cytoplasmic fraction. […] The nuclear extract fraction was collected as the supernatant layer following centrifugation at 10,000×g for […] at 4° C. NF-kB DNA binding of the nuclear extracts was assessed using the TransAM NF-κB kit from Active Motif (Carlsbad, Calif.) as per manufacturer's instructions. […] Protein concentration was measured (Bio-Rad assay) and 10 μg of nuclear protein extracts were assayed in duplicate.

[4] = test system: TNFα-treated 3T3-L1 adipocytes; assay: IL-6 secretion from TNFα-treated 3T3-L1 adipocytes; assay type: cell-based, murine; conditions: Mus musculus, 10 ng TNFα/ml; for inhibition at 1 µg/mL: 1.0 μg/ml
COX-2 protein expression = COX-2 protein expression by Western blot in LPS-stimulated RAW 264.7 cells; assay type: cell-based, murine; conditions: 20 hours LPS, versus DMSO solvent control
Method: Densitometry was performed using Kodak®software.

[5] = arbitrary category of the median inhibitory concentration, read-out: Relative IC50
[6] = test material added 90 min before LPS, 18 h, read-out: IC50 (PGE2 inhibition)

**Q.** Which IC50 [1] does the source give for O=c1cc(-c2ccc(O)cc2)oc2cc(O)cc(O)c12 [Apigenin, apigenin] here?
**A.** 2 to 7 µg/mL (≈ 7.4 to 25.9 µM)

**Q.** And the IC50 [1, 5]?
**A.** 2 to 6 µg/mL (≈ 7.4 to 22.2 µM)

**Q.** What about the IC50 [1, 6] of the same molecule?
**A.** 2.8 µg/mL (≈ 10.4 µM)

**Q.** For CC(=O)Oc1ccccc1C(=O)O [Aspirin], which “% Stimulation of adiponectin secretion (maximum)” value (“% Stimulation” below) [2] is on record?
**A.** failed to induce adiponectin secretion

**Q.** How did the IC50 [1] turn out when COc1ccc2cc3[n+](cc2c1OC)CCc1cc2c(cc1-3)OCO2 [Berberine] was run?
**A.** 2 to 7 µg/mL

**Q.** Which “% Stimulation” value [2] does the source give for Cc1ccc(-c2cc(C(F)(F)F)nn2-c2ccc(S(N)(=O)=O)cc2)cc1 [Celecoxib, celecoxib] here?
**A.** failed to induce adiponectin secretion

**Q.** For COc1cc(/C=C/C(=O)CC(=O)/C=C/c2ccc(O)c(OC)c2)ccc1O [Curcumin, curcumin], which IC50 [1] is on record?
**A.** 2 to 7 µg/mL (≈ 5.43 to 19 µM)

**Q.** What about the IC50 [1, 5] of the same molecule?
**A.** 2 to 6 µg/mL (≈ 5.43 to 16.3 µM)

**Q.** O=c1c(O)c(-c2ccc(O)c(O)c2)oc2cc(O)ccc12 [Fisetin, fisetin] was tested. Which IC50 [1] did it give?
**A.** > 12 µg/mL

**Q.** And the IC50 [1, 5]?
**A.** > 12 µg/mL

**Q.** What about the IC50 [1, 6] of the same molecule?
**A.** > 12 µg/mL

**Q.** Which IC50 [1] does the source give for O=c1c(O)c(-c2ccccc2)oc2cc(O)cc(O)c12 [Galangin, galangin] here?
**A.** 0.3 to 1.7 µg/mL (≈ 1.11 to 6.29 µM)

**Q.** And the IC50 [1, 5]?
**A.** 1 µg/mL (≈ 3.7 µM)

**Q.** What about the IC50 [1, 6] of the same molecule?
**A.** 1.4 µg/mL (≈ 5.18 µM)

**Q.** And the “Relative Potency” value [1]?
**A.** high

**Q.** Which IC50 [1] does the source give for O=c1c(-c2ccc(O)cc2)coc2cc(O)cc(O)c12 [Genistein, genistein] here?
**A.** 0.3 to 1.7 µg/mL (≈ 1.11 to 6.29 µM)

**Q.** And the IC50 [1, 5]?
**A.** 1 µg/mL (≈ 3.7 µM)

**Q.** And the IC50 [1, 6]?
**A.** 1.7 µg/mL (≈ 6.29 µM)

**Q.** What about the “Relative Potency” value [1] of the same molecule?
**A.** high

**Q.** For CC(C)CCC1=C(O)C(C(=O)C(C)C)=C(O)C(CCC(C)C)(CCC(C)C)C1=O [Hexahydrocolupulone], which “adipogenic response, in words” value (3T3-L1 adipocytes) is on record?
**A.** failed to elicit a lipogenic response greater than the solvent controls

**Q.** What about the Adiponectin/IL-6 ([3]; 25 μg/ml) of the same molecule?
**A.** 1.36#

**Q.** And the Adiponectin/IL-6 ([3]; 50 μg/ml)?
**A.** 0.60#

**Q.** And the “concentration at which maximal adiponectin secretion was observed” value ([3]; of the four doses tested)?
**A.** 12.5 µg/mL

**Q.** COc1ccc2c(c1)c(CC(=O)O)c(C)n2C(=O)c1ccc(Cl)cc1 [Indomethacin, indomethacin] was tested. Which “% Stimulation” value [2] did it give?
**A.** 9%

**Q.** Which IC50 [1] does the source give for CC(C)Oc1ccc2c(=O)c(-c3ccccc3)coc2c1 [Ipriflavone, ipriflavone] here?
**A.** 2 to 7 µg/mL (≈ 7.13 to 25 µM)

**Q.** What about the IC50 [1, 5] of the same molecule?
**A.** 2 to 6 µg/mL (≈ 7.13 to 21.4 µM)

**Q.** And the IC50 [1, 6]?
**A.** 6.3 µg/mL (≈ 22.5 µM)

**Q.** For O=c1cc(N2CCOCC2)oc2c(-c3ccccc3)cccc12 [LY294002], which “NF-κB DNA binding, in words” value (NF-κB) is on record?
**A.** modest decrease

**Q.** How did the IC50 [1] turn out when O=c1cc(-c2ccc(O)c(O)c2)oc2cc(O)cc(O)c12 [Luteolin, luteolin] was run?
**A.** 2 to 7 µg/mL (≈ 6.99 to 24.5 µM)

**Q.** And the IC50 [1, 5]?
**A.** 2 to 6 µg/mL (≈ 6.99 to 21 µM)

**Q.** And the IC50 [1, 6]?
**A.** 3.9 µg/mL (≈ 13.6 µM)

**Q.** How did the inhibition at 1 µg/mL [4] turn out when CN(C)C(=N)N=C(N)N [Metformin] was run?
**A.** 9%

**Q.** And the inhibition at 5 µg/mL ([4]; 5.0 μg/ml)?
**A.** 4%

**Q.** What about the inhibition at 10 µg/mL ([4]; 10 μg/ml) of the same molecule?
**A.** 22%

**Q.** And the inhibition at 50 µg/mL ([4]; 50 μg/ml)?
**A.** 22%

**Q.** Which results are given for O=c1c(O)c(-c2ccc(O)cc2O)oc2cc(O)cc(O)c12 [Morin, morin]?
**A.** IC50 [1]: > 12 µg/mL; IC50 [1, 5]: > 12 µg/mL; IC50 [1, 6]: > 12 µg/mL

**Q.** Which IC50 [1] does the source give for O=C1C[C@@H](c2ccc(O)cc2)Oc2cc(O)cc(O)c21 [Naringenin, naringenin] here?
**A.** > 12 µg/mL

**Q.** And the IC50 [1, 5]?
**A.** > 12 µg/mL

**Q.** And the IC50 [1, 6]?
**A.** > 12 µg/mL

**Q.** For CC1(C)CC[C@]2(C(=O)O)CC[C@]3(C)C(=CC[C@@H]4[C@@]5(C)CC[C@H](O)C(C)(C)[C@@H]5CC[C@]43C)[C@@H]2C1 [Oleanolic acid, oleanolic acid], which IC50 [1, 5] is on record?
**A.** 1 µg/mL (≈ 2.19 µM)

**Q.** With C=C1C(=O)O[C@H]2[C@H]1CC/C(C)=C/CC[C@@]1(C)O[C@@H]21 [Parthenolide] as the molecule, how does the “reduction of COX-2 protein expression” value (COX-2 protein expression) read?
**A.** 22.5%

**Q.** What about the “NF-κB DNA binding, in words” value (NF-κB) of the same molecule?
**A.** significant reduction

**Q.** For CCc1ccc(CCOc2ccc(CC3SC(=O)NC3=O)cc2)nc1 (centres unmarked) [Pioglitazone], which “Adiponectin Index (maximum stimulation)” value ([2]; relative to LPS control) is on record?
**A.** 1.12*

**Q.** Which results are given for O=c1c(O)c(-c2ccc(O)c(O)c2)oc2cc(O)cc(O)c12 [Quercetin]?
**A.** IC50 [1]: 0.3 to 1.7 µg/mL (≈ 0.993 to 5.62 µM); IC50 [1, 5]: 1 µg/mL (≈ 3.31 µM); IC50 [1, 6]: 0.82 µg/mL (≈ 2.71 µM); Relative Potency [1]: high

**Q.** Oc1ccc(C=Cc2cc(O)cc(O)c2)cc1 [Resveratrol, resveratrol] was tested. Which IC50 [1] did it give?
**A.** 2 to 7 µg/mL (≈ 8.76 to 30.7 µM)

**Q.** With O=C(O)c1ccccc1O [Salicylic acid, salicylic acid] as the molecule, how does the “% Stimulation” value [2] read?
**A.** failed to induce adiponectin secretion

**Q.** Which inhibition at 1 µg/mL [4] does the source give for Cc1c(C)c2c(c(C)c1O)CCC(C)(COc1ccc(CC3SC(=O)NC3=O)cc1)O2 (centres unmarked) [Troglitazone] here?
**A.** 34%

**Q.** What about the “Concentration at maximum stimulation of adiponectin secretion” value [2] of the same molecule?
**A.** 0.625 µg/mL
